Data: publication PMC9785006, “The Study of Hypoglycemic Activity of 7-Terpenylcoumarins” (Molecules, 2022)

Key:
[1] = target: T1, DPP IV (Homo sapiens, UniProt P27487); experiment: fluorometric DPP (IV) inhibitor screening kit (Cayman), Gly-Pro-AMC substrate; at […] the effect was only a tendency ([…] < p < […]); assay type: biochemical
T1 construct: gene DPP4

[2] = target: T1, DPP IV; experiment: fluorometric DPP (IV) inhibitor screening kit (Cayman), Gly-Pro-AMC substrate; assay type: biochemical

T1 sequence (P27487 39-766): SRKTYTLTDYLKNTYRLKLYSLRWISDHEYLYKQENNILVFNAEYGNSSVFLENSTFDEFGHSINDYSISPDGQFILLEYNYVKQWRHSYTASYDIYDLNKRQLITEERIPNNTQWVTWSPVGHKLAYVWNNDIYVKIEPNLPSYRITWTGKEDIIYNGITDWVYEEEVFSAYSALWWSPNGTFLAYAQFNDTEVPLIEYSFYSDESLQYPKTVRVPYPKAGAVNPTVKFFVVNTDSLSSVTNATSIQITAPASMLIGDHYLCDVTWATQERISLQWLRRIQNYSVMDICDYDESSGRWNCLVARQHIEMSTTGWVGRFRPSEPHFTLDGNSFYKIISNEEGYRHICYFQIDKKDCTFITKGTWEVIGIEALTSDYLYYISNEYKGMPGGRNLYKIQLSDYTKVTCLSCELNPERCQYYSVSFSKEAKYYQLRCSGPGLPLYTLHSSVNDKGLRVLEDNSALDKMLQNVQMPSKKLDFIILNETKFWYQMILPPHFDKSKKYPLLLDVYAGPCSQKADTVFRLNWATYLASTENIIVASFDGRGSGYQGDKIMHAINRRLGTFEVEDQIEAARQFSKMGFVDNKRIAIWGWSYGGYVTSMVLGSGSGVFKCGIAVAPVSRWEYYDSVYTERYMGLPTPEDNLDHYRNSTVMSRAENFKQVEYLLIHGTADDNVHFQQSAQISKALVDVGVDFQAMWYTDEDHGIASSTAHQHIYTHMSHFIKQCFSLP

Row | IC50 [1] [µM] | IC50 [2] [µM] | SMILES
1 | 115 | – | CC1(C)[C@H]2CC=C(COc3ccc4c5c(c(=O)oc4c3)CCC5)[C@@H]1C2 [7b, 7-(((1R,5S)-6,6-Dimethylbicyclo [3.1.1]hept-2-en-2-yl)methoxy)-2,3-dihydrocyclopenta[c]chromen-4(1H)-one]
2 | – | 128 | CC(C)=CCC/C(C)=C/COc1ccc2c(-c3ccccc3)cc(=O)oc2c1 [9a, (E)-7-(3,7-Dimethylocta-2,6-dienyloxy)-4-phenyl-2H-chromen-2-one]
